Assay results published in PubChem BioAssay AID1918949 (Molecular Pharmacology Branch, DTP, NCI, 2023).

System: K24384-001-R-PDC complex spheroid viability
Test: Anticancer human tumor K24384-001-R-PDC patient-derived pancreatic adenocarcinoma cell line growth inhibition
Settings: for IC50: curve of first compound; for viability, T/C: stronger effect = lower value
In short: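 Drug combinations with the LSD1 inhibitor iadademstat tested on tumor cells co-cultured as spheroids with endothelial cells and mesenchymal stem cells. Concentrations descended in half-log increments from clinical Cmax or 10 microM.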

[1] = second compound 0.1 µM, first compound 0.0316 µM
[2] = second compound 0.1 µM, first compound 0.1 µM
[3] = second compound 0.316 µM, first compound 0.0316 µM
[4] = second compound 0.316 µM, first compound 0.1 µM
[5] = second compound 1 µM, first compound 0.0316 µM
[6] = second compound 1 µM, first compound 0.1 µM
[7] = second compound 3.16 µM, first compound 0.0316 µM
[8] = second compound 3.16 µM, first compound 0.1 µM
[9] = second compound 10 µM, first compound 0.0316 µM
[10] = second compound 10 µM, first compound 0.1 µM
[11] = second compound 0.1 µM, first compound 0.00949 µM
[12] = second compound 0.1 µM, first compound 0.03 µM
[13] = second compound 0.1 µM, first compound 0.0949 µM
[14] = second compound 0.1 µM, first compound 0.3 µM
[15] = second compound 0.1 µM, first compound 0.949 µM
[16] = second compound 0.1 µM, first compound 3 µM
[17] = second compound 0.316 µM, first compound 0.00949 µM
[18] = second compound 0.316 µM, first compound 0.03 µM
[19] = second compound 0.316 µM, first compound 0.0949 µM
[20] = second compound 0.316 µM, first compound 0.3 µM
[21] = second compound 0.316 µM, first compound 0.949 µM
[22] = second compound 0.316 µM, first compound 3 µM
[23] = second compound 1 µM, first compound 0.00949 µM
[24] = second compound 1 µM, first compound 0.03 µM
[25] = second compound 1 µM, first compound 0.0949 µM
[26] = second compound 1 µM, first compound 0.3 µM
[27] = second compound 1 µM, first compound 0.949 µM
[28] = second compound 1 µM, first compound 3 µM
[29] = second compound 3.16 µM, first compound 0.00949 µM
[30] = second compound 3.16 µM, first compound 0.03 µM
[31] = second compound 3.16 µM, first compound 0.0949 µM
[32] = second compound 3.16 µM, first compound 0.3 µM
[33] = second compound 3.16 µM, first compound 0.949 µM
[34] = second compound 3.16 µM, first compound 3 µM
[35] = second compound 10 µM, first compound 0.00949 µM
[36] = second compound 10 µM, first compound 0.03 µM
[37] = second compound 10 µM, first compound 0.0949 µM
[38] = second compound 10 µM, first compound 0.3 µM
[39] = second compound 10 µM, first compound 0.949 µM
[40] = second compound 10 µM, first compound 3 µM
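Further: spheroids exposed to agents for seven days before luminescence viability reading.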
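Wherever viability, T/C is given: 100% = DMSO vehicle control viability.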

Structure (SMILES): CC(C)CC(NC(=O)C(Cc1ccccc1)NC(=O)c1cnccn1)B(O)O (stereo not given) + NC1CC1c1ccc(-c2cccc(O)c2)cc1
- IC50 (second compound 0.1 µM): 0.000518 µM
- IC50 (second compound 0.316 µM): 0.000554 µM
- IC50 (second compound 1 µM): 0.000541 µM
- IC50 (second compound 3.16 µM): 0.000514 µM
- IC50 (second compound 10 µM): 0.000383 µM
- viability, T/C (second compound 0.1 µM, first compound 0.000316 µM): 85.9%
- viability, T/C (second compound 0.1 µM, first compound 0.001 µM): 2.19%
- viability, T/C (second compound 0.1 µM, first compound 0.00316 µM): 0.45%
- viability, T/C (second compound 0.1 µM, first compound 0.01 µM): 0.17%
- viability, T/C [1]: 0.24%
- viability, T/C [2]: 0.27%
- viability, T/C (second compound 0.316 µM, first compound 0.000316 µM): 95.9%
- viability, T/C (second compound 0.316 µM, first compound 0.001 µM): 1.68%
- viability, T/C (second compound 0.316 µM, first compound 0.00316 µM): 2.35%
- viability, T/C (second compound 0.316 µM, first compound 0.01 µM): 0.3%
- viability, T/C [3]: 0.24%
- viability, T/C [4]: 1.4%
- viability, T/C (second compound 1 µM, first compound 0.000316 µM): 92%
- viability, T/C (second compound 1 µM, first compound 0.001 µM): 1.87%
- viability, T/C (second compound 1 µM, first compound 0.00316 µM): 0.24%
- viability, T/C (second compound 1 µM, first compound 0.01 µM): 0.3%
- viability, T/C [5]: 0.15%
- viability, T/C [6]: 0.92%
- viability, T/C (second compound 3.16 µM, first compound 0.000316 µM): 85.5%
- viability, T/C (second compound 3.16 µM, first compound 0.001 µM): 1.44%
- viability, T/C (second compound 3.16 µM, first compound 0.00316 µM): 0.32%
- viability, T/C (second compound 3.16 µM, first compound 0.01 µM): 0.19%
- viability, T/C [7]: 0.18%
- viability, T/C [8]: 0.22%
- viability, T/C (second compound 10 µM, first compound 0.000316 µM): 59.5%
- viability, T/C (second compound 10 µM, first compound 0.001 µM): 1.6%
- viability, T/C (second compound 10 µM, first compound 0.00316 µM): 3.23%
- viability, T/C (second compound 10 µM, first compound 0.01 µM): 1.83%
- viability, T/C [9]: 1.14%
- viability, T/C [10]: 2.44%

Structure (SMILES): NS(=O)(=O)OCC1CC(n2ccc3c(NC4CCc5ccccc54)ncnc32)CC1O (stereo not given) + NC1CC1c1ccc(-c2cccc(O)c2)cc1
- IC50 (second compound 0.1 µM): 0.439 µM
- IC50 (second compound 0.316 µM): 0.57 µM
- IC50 (second compound 1 µM): 0.479 µM
- IC50 (second compound 3.16 µM): 0.42 µM
- IC50 (second compound 10 µM): 0.512 µM
- viability, T/C [11]: 124%
- viability, T/C [12]: 155%
- viability, T/C [13]: 154%
- viability, T/C [14]: 58.9%
- viability, T/C [15]: 36.9%
- viability, T/C [16]: 27%
- viability, T/C [17]: 128%
- viability, T/C [18]: 156%
- viability, T/C [19]: 135%
- viability, T/C [20]: 71.1%
- viability, T/C [21]: 37.5%
- viability, T/C [22]: 25.4%
- viability, T/C [23]: 114%
- viability, T/C [24]: 155%
- viability, T/C [25]: 146%
- viability, T/C [26]: 62.5%
- viability, T/C [27]: 36.6%
- viability, T/C [28]: 26.9%
- viability, T/C [29]: 110%
- viability, T/C [30]: 148%
- viability, T/C [31]: 138%
- viability, T/C [32]: 55.4%
- viability, T/C [33]: 43.1%
- viability, T/C [34]: 30.8%
- viability, T/C [35]: 155%
- viability, T/C [36]: 151%
- viability, T/C [37]: 114%
- viability, T/C [38]: 61.1%
- viability, T/C [39]: 40.8%
- viability, T/C [40]: 23%

Structure (SMILES): CCc1c2c(nc3ccc(O)cc13)-c1cc3c(c(=O)n1C2)COC(=O)[C@]3(O)CC + NC1CCC(NC2CC2c2ccccc2)CC1
- IC50 (second compound 0.1 µM): < 0.000949 µM
- IC50 (second compound 0.316 µM): < 0.000949 µM
- IC50 (second compound 1 µM): < 0.000949 µM
- IC50 (second compound 3.16 µM): < 0.000949 µM
- IC50 (second compound 10 µM): < 0.000949 µM
- viability, T/C (second compound 0.1 µM, first compound 0.000949 µM): 46.4%
- viability, T/C (second compound 0.1 µM, first compound 0.003 µM): 36.2%
- viability, T/C [11]: 30.9%
- viability, T/C [12]: 8.66%
- viability, T/C [13]: 5.82%
- viability, T/C [14]: 4.86%
- viability, T/C (second compound 0.316 µM, first compound 0.000949 µM): 46.2%
- viability, T/C (second compound 0.316 µM, first compound 0.003 µM): 43.4%
- viability, T/C [17]: 35%
- viability, T/C [18]: 10.1%
- viability, T/C [19]: 4.59%
- viability, T/C [20]: 4.24%
- viability, T/C (second compound 1 µM, first compound 0.000949 µM): 41.5%
- viability, T/C (second compound 1 µM, first compound 0.003 µM): 39%
- viability, T/C [23]: 31.5%
- viability, T/C [24]: 9.09%
- viability, T/C [25]: 5.26%
- viability, T/C [26]: 4.62%
- viability, T/C (second compound 3.16 µM, first compound 0.000949 µM): 47.4%
- viability, T/C (second compound 3.16 µM, first compound 0.003 µM): 43%
- viability, T/C [29]: 33.2%
- viability, T/C [30]: 9.39%
- viability, T/C [31]: 4.03%
- viability, T/C [32]: 4.04%
- viability, T/C (second compound 10 µM, first compound 0.000949 µM): 45%
- viability, T/C (second compound 10 µM, first compound 0.003 µM): 38.1%
- viability, T/C [35]: 26.3%
- viability, T/C [36]: 9.03%
- viability, T/C [37]: 3.67%
- viability, T/C [38]: 3.1%

Structure (SMILES): Nc1ccccc1NC(=O)c1ccc(CNC(=O)OCc2cccnc2)cc1 + NC1CCC(NC2CC2c2ccccc2)CC1
- IC50 (second compound 0.1 µM): 0.376 µM
- IC50 (second compound 0.316 µM): 0.444 µM
- IC50 (second compound 1 µM): 0.447 µM
- IC50 (second compound 3.16 µM): 0.401 µM
- IC50 (second compound 10 µM): 0.321 µM
- viability, T/C [11]: 86.6%
- viability, T/C [12]: 84.9%
- viability, T/C [13]: 76.2%
- viability, T/C [14]: 61.3%
- viability, T/C [15]: 5.83%
- viability, T/C [16]: 0.14%
- viability, T/C [17]: 79.7%
- viability, T/C [18]: 82.1%
- viability, T/C [19]: 83.7%
- viability, T/C [20]: 70.8%
- viability, T/C [21]: 9.57%
- viability, T/C [22]: 0.15%
- viability, T/C [23]: 80.3%
- viability, T/C [24]: 89%
- viability, T/C [25]: 92%
- viability, T/C [26]: 70.6%
- viability, T/C [27]: 10.4%
- viability, T/C [28]: 0.13%
- viability, T/C [29]: 79.9%
- viability, T/C [30]: 88.2%
- viability, T/C [31]: 80.2%
- viability, T/C [32]: 65.2%
- viability, T/C [33]: 5.24%
- viability, T/C [34]: 0.16%
- viability, T/C [35]: 84.1%
- viability, T/C [36]: 90.7%
- viability, T/C [37]: 88.7%
- viability, T/C [38]: 53%
- viability, T/C [39]: 1.77%
- viability, T/C [40]: 0.2%

Structure (SMILES): COc1ccc([C@@H](O)c2cc(-c3ncnc4cc(N5CCOCC5)ccc34)c(F)cc2Cl)nn1 + NC1CC1c1ccc(-c2cccc(O)c2)cc1
- IC50 (second compound 0.1 µM): 1.33 µM
- IC50 (second compound 0.316 µM): 2 µM
- IC50 (second compound 1 µM): 1.49 µM
- IC50 (second compound 3.16 µM): 1.44 µM
- IC50 (second compound 10 µM): 1.45 µM
- viability, T/C [1]: 97%
- viability, T/C [2]: 95.6%
- viability, T/C (second compound 0.1 µM, first compound 0.316 µM): 87.2%
- viability, T/C (second compound 0.1 µM, first compound 1 µM): 55.9%
- viability, T/C (second compound 0.1 µM, first compound 3.16 µM): 29.6%
- viability, T/C (second compound 0.1 µM, first compound 10 µM): 17.8%
- viability, T/C [3]: 112%
- viability, T/C [4]: 102%
- viability, T/C (second compound 0.316 µM, first compound 0.316 µM): 91.1%
- viability, T/C (second compound 0.316 µM, first compound 1 µM): 73.2%
- viability, T/C (second compound 0.316 µM, first compound 3.16 µM): 34.3%
- viability, T/C (second compound 0.316 µM, first compound 10 µM): 15.1%
- viability, T/C [5]: 117%
- viability, T/C [6]: 103%
- viability, T/C (second compound 1 µM, first compound 0.316 µM): 95.2%
- viability, T/C (second compound 1 µM, first compound 1 µM): 61.3%
- viability, T/C (second compound 1 µM, first compound 3.16 µM): 28.1%
- viability, T/C (second compound 1 µM, first compound 10 µM): 15.9%
- viability, T/C [7]: 105%
- viability, T/C [8]: 105%
- viability, T/C (second compound 3.16 µM, first compound 0.316 µM): 79.7%
- viability, T/C (second compound 3.16 µM, first compound 1 µM): 62.7%
- viability, T/C (second compound 3.16 µM, first compound 3.16 µM): 28.6%
- viability, T/C (second compound 3.16 µM, first compound 10 µM): 15.1%
- viability, T/C [9]: 124%
- viability, T/C [10]: 114%
- viability, T/C (second compound 10 µM, first compound 0.316 µM): 96.6%
- viability, T/C (second compound 10 µM, first compound 1 µM): 57%
- viability, T/C (second compound 10 µM, first compound 3.16 µM): 32.2%
- viability, T/C (second compound 10 µM, first compound 10 µM): 14.9%
